EP0891770B1, “Killer T cell activator and use thereof” (Nitto Denko Corporation, priority 1997, dated 1999)
Like-named read-outs stand apart in the source and are kept apart here. Where a SMILES comes first, the peptide text is derived from it.

Key:
[1] = test system: HSV peptide-pulsed L cells; conditions: peptide given as inoculated pressure sensitive adhesive tape
Method: At 1 week after the peptide application, cervical lymph node was removed, and lymphocytes were cultured for 2 days in vitro in an RPMI1640 medium containing a slight amount (5 U/ml) of IL-2. The L^kb cells labeled with ^51Cr were pulsed with antigenic peptide (5 µmol) and L^tk- cells were used as a control. Cytotoxicity assay was performed using cultured lymphocytes as effector cells, and ^51Cr-labeled and antigenic peptide-pulsed L^kb cells and L^tk- cells as target cells. […] The antigenic peptides used were the three kinds recited in Reference Example 1.

[2] = test system: antigenic peptide-pulsed L^kb cells

Row | SMILES | Cytotoxic activity specific to HSV peptide-pulsed L cells (%) ([1]; time after stripping 12) | Cytotoxic activity specific to HSV peptide-pulsed L cells (%) ([1]; time after stripping 24) | Cytotoxic activity specific to HSV peptide-pulsed L cells (%) ([1]; time after stripping 48) | Cytotoxic activity specific to HSV peptide-pulsed L cells (%) ([1]; time after stripping: untreated) | cytotoxic activity of cervical lymphocyte-derived effector cells (antigen specificity) [2]
1 | CC[C@H](C)[C@H](NC(=O)[C@H](CO)NC(=O)[C@@H](N)CO)C(=O)N[C@@H](CCC(=O)O)C(=O)N[C@@H](Cc1ccccc1)C(=O)N[C@@H](C)C(=O)N[C@@H](CCCNC(=N)N)C(=O)N[C@@H](CC(C)C)C(=O)O [HSV gp B, Ser Ser Ile Glu Phe Ala Arg Leu] (H-SSIEFARL-OH) | 45.3 ± 1.5 | 37.0 ± 1.1 | 3.5 ± 0.6 | 0.2 ± 0.8 | recognized and certainly eradicated the cells presenting an H-2K^b - HSV gp B peptide complex alone
2 | CC[C@H](C)[C@H](NC(=O)[C@@H](NC(=O)[C@@H](N)CO)[C@@H](C)CC)C(=O)N[C@@H](CC(N)=O)C(=O)N[C@@H](Cc1ccccc1)C(=O)N[C@@H](CCC(=O)O)C(=O)N[C@@H](CCCCN)C(=O)N[C@@H](CC(C)C)C(=O)O [Ovalbumin, Ser Ile Ile Asn Phe Glu Lys Leu] |  |  |  |  | selectively damaged the cells presenting respective inoculated antigenic peptides
3 | CC(C)C[C@H](NC(=O)CNC(=O)[C@H](CCC(N)=O)NC(=O)[C@H](Cc1ccc(O)cc1)NC(=O)[C@@H](NC(=O)[C@H](Cc1ccc(O)cc1)NC(=O)CNC(=O)[C@@H](N)CCCNC(=N)N)C(C)C)C(=O)O [VSV NP, Arg Gly Tyr Val Tyr Gln Gly Leu] |  |  |  |  | selectively damaged the cells presenting respective inoculated antigenic peptides
